Test results as given in patent publication EP0771196B1, “EXCITATORY AMINO ACID RECEPTOR ANTAGONISTS” (ELI LILLY AND COMPANY, priority 1994, dated 1996).
Marks after values point to notes of the source that are not given here.

Test system: metabotropic glutamate receptors
Experiment: Displacement of 1S,3R-ACPD-sensitive [3H]glutamate binding to rat brain cell membranes
Details: crude membranes of rat forebrain; 10 µM compound
Method: The binding of [^3H]glutamate was conducted with crude membranes of rat forebrain as described by Schoepp and True. Schoepp and True, Neuroscience Lett., 145, 100-104 (1992) and True and Schoepp, Society for Neuroscience Abstracts, 19, 470 (1993). IC50 values for the inhibition of [^3H]glutamate binding, or the percent displacement of [^3H]glutamate binding at a 10 µM concentration, of the formula I compound, is shown in Table II.

In the case of NC(Cc1ccccc1)(C(=O)O)C1CC1C(=O)O (stereo not drawn) [Example 1, 2SR- and 2RS-2-amino-2-(1SR,2SR-2-carboxycyclopropan-1-yl)-3-phenylpropanoic acid], the “ACPD-Sensitive [^3H]Glutamate Binding % Displacement at 10 µM” value is reported as “(61%)”.
With NC(Cc1ccc(C(=O)O)cc1)(C(=O)O)C1CC1C(=O)O (stereo not drawn) [Example 42, 2SR- and 2RS-2-amino-2-(1SR,2SR-2-carboxycyclopropan-1-yl)-3-((4-carboxy)phenyl)propanoic acid] the “ACPD-Sensitive [^3H]Glutamate Binding % Displacement at 10 µM” value was “(39%)”.
In the case of NC(C(=O)O)(C1Cc2ccccc2C1)C1CC1C(=O)O (stereo not drawn) [Example 43, 2SR- and 2RS-2-amino-2-(1SR,2SR-2-carboxycyclopropan-1-yl)-2-(indan-2-yl)ethanoic acid], the “ACPD-Sensitive [^3H]Glutamate Binding % Displacement at 10 µM” value is reported as “(32%)”.
In the case of NC(CCC1CCNCC1)(C(=O)O)C1CC1C(=O)O (stereo not drawn) [Example 45, 2SR- and 2RS-2-amino-2-(1SR,2SR-2-carboxycyclopropan-1-yl)-2-(piperidin-4-yl)butanoic acid], the “ACPD-Sensitive [^3H]Glutamate Binding % Displacement at 10 µM” value is reported as “(42%)”.
With N[C@@](CC(c1ccccc1)c1ccccc1)(C(=O)O)[C@@H]1C[C@H]1C(=O)O [Example 65, 2R 2-amino-2-(1R,2R-2-carboxycyclopropan-1-yl)-4,4-diphenylbutanoic acid] the “ACPD-Sensitive [^3H]Glutamate Binding % Displacement at 10 µM” value was “(45%)”.
In the case of N[C@](CC(c1ccccc1)c1ccccc1)(C(=O)O)[C@@H]1C[C@H]1C(=O)O [Example 66, 2S-2-amino-2-(1R,2R-2-carboxycyclopropan-1-yl)-4,4-diphenylbutanoic acid], the “ACPD-Sensitive [^3H]Glutamate Binding % Displacement at 10 µM” value is reported as “(36%)”.

Same assay, conditions: crude membranes of rat forebrain; 10 µM compound; 10 µM

For Cc1cccc(CCC(N)(C(=O)O)C2CC2C(=O)O)c1 [Example 67, 2R-2-amino-2-(1S,2S-2-carboxycyclopropan-1-yl)-4-(3-methylphenyl)butanoic acid], the “ACPD-Sensitive [^3H]Glutamate Binding % Displacement at 10 µM” value was “(22%)^b”.

Same assay, conditions: crude membranes of rat forebrain; inhibition of [3H]glutamate binding

First: NC(Cc1cccc2c1Oc1ccccc1C2)(C(=O)O)[C@H]1C[C@@H]1C(=O)O (mixture of isomers) [Example 35, 2SR- and 2RS-2-amino-2-(1SR,2SR-2-carboxycyclopropan-1-yl)-3-(dibenzopyran-4-yl)propanoic acid]
Second: NC(CCc1ccccc1O)(C(=O)O)C1CC1C(=O)O (stereo not drawn) [Example 29, 2SR- and 2RS-2-amino-2-(1SR,2SR-2-carboxycyclopropan-1-yl)-4-(2-hydroxyphenyl)butanoic acid]
The IC50 of the first is 11-fold lower: 9 nM for the first, 100 nM for the second. The first is the more potent here.

Compared with NC(CCc1ccccc1)(C(=O)O)C1CC1C(=O)O (stereo not drawn) [Example 2, 2SR- and 2RS-2-amino-2-(1SR,2SR-2-carboxycyclopropan-1-yl)-4-phenylbutanoic acid], NC(CCCc1ccccc1)(C(=O)O)C1CC1C(=O)O (stereo not drawn) [Example 3, 2SR- and 2RS-2-amino-2-(1SR,2SR-2-carboxycyclopropan-1-yl)-5-phenylpentanoic acid] is 2-fold higher in IC50: 320 nM for the first, 630 nM for the second. The first is the more potent here.

Compared with NC(CCCCc1ccccc1)(C(=O)O)C1CC1C(=O)O (stereo not drawn) [Example 4, 2SR- and 2RS-2-amino-2-(1SR,2SR-2-carboxycyclopropan-1-yl)-6-phenylhexanoic acid], NC(COc1ccccc1)(C(=O)O)C1CC1C(=O)O (stereo not drawn) [Example 39, 2SR- and 2RS-2-amino-2-(1SR,2SR-2-carboxycyclopropan-1-yl)-3-phenoxypropanoic acid] is 4.9-fold higher in IC50: 2300 nM for the first, 11200 nM for the second. The first is the more potent here.

First: NC(CC(c1ccccc1)c1ccccc1)(C(=O)O)C1CC1C(=O)O (stereo not drawn) [Example 5, 2SR- and 2RS-2-amino-2-(1SR,2SR-2-carboxycyclopropan-1-yl)-4,4-diphenylbutanoic acid]
Second: N[C@@](CC(c1ccccc1)c1ccccc1)(C(=O)O)[C@H]1C[C@@H]1C(=O)O [Example 63, 2R 2-amino-2-(1S,2S-2-carboxycyclopropan-1-yl)-4,4-diphenylbutanoic acid]
The IC50 of the first is 26-fold lower: 76 nM for the first, 2000 nM for the second.

NC(CCC(c1ccccc1)c1ccccc1)(C(=O)O)C1CC1C(=O)O (stereo not drawn) [Example 6, 2SR- and 2RS-2-amino-2-(1SR,2SR-2-carboxycyclopropan-1-yl)-5,5-diphenylpentanoic acid] and NC(CCCC(c1ccccc1)c1ccccc1)(C(=O)O)C1CC1C(=O)O (stereo not drawn) [Example 7, 2SR- and 2RS-2-amino-2-(1SR,2SR-2-carboxycyclopropan-1-yl)-6,6-diphenylhexanoic acid] are within 1.5-fold of each other in IC50: 7100 nM for the first, 7000 nM for the second.

First: CC(N)(C(=O)O)C1CC1C(=O)O (stereo not drawn) [Example 8, 2SR- and 2RS-2-amino-2-(1SR,2SR-2-carboxycyclopropan-1-yl)propanoic acid, reference compound]
Second: CCC(N)(C(=O)O)C1CC1C(=O)O (stereo not drawn) [Example 9, 2SR- and 2RS-2-amino-2-(1SR,2SR-2-carboxycyclopropan-1-yl)butanoic acid]
The IC50 of the first is 2.8-fold higher: 6200 nM for the first, 2200 nM for the second.

Compared with CCCC(N)(C(=O)O)C1CC1C(=O)O (stereo not drawn) [Example 10, 2SR- and 2RS-2-amino-2-(1SR,2SR-2-carboxycyclopropan-1-yl)pentanoic acid], CCCCC(N)(C(=O)O)C1CC1C(=O)O (stereo not drawn) [Example 11, 2SR- and 2RS-2-amino-2-(1SR,2SR-2-carboxycyclopropan-1-yl)hexanoic acid] is 1.5-fold lower in IC50: 2100 nM for the first, 1400 nM for the second. The second is the more potent here.

First: CCCCCC(N)(C(=O)O)C1CC1C(=O)O (stereo not drawn) [Example 12, 2SR- and 2RS-2-amino-2-(1SR,2SR-2-carboxycyclopropan-1-yl)heptanoic acid]
Second: NC(CC1CCC1)(C(=O)O)C1CC1C(=O)O (stereo not drawn) [Example 40, 2SR- and 2RS-2-amino-2-(1SR,2SR-2-carboxycyclopropan-1-yl)-3-cyclobutylpropanoic acid]
The IC50 of the first is 16-fold lower: 1800 nM for the first, 29500 nM for the second. The first is the more potent here.

NC(CCc1ccc(Cl)cc1)(C(=O)O)C1CC1C(=O)O (stereo not drawn) [Example 25, 2SR- and 2RS-2-amino-2-(1SR, 2SR-2-carboxycyclopropan-1-yl)-4-(4-chlorophenyl)butanoic acid] and NC(CCc1ccc(O)cc1)(C(=O)O)C1CC1C(=O)O (stereo not drawn) [Example 31, 2SR- and 2RS-2-amino-2-(1SR,2SR-2-carboxycyclopropan-1-yl)-4-(4-hydroxyphenyl)butanoic acid] are within 1.5-fold of each other in IC50: 410 nM for the first, 300 nM for the second.

COc1ccccc1CCC(N)(C(=O)O)C1CC1C(=O)O (stereo not drawn) [Example 26, 2SR- and 2RS-2-amino-2-(1SR,2SR-2-carboxycyclopropan-1-yl) -4-(2-methoxyphenyl)butanoic acid] and COc1ccc(OC)c(CCC(N)(C(=O)O)C2CC2C(=O)O)c1 (stereo not drawn) [Example 32, 2SR- and 2RS-2-amino-2-(1SR,2SR-2-carboxycyclopropan-1-yl)-4-(2,5-dimethoxyphenyl)butanoic acid] are the same in IC50: 170 nM for the first, 170 nM for the second.

First: COc1cccc(CCC(N)(C(=O)O)C2CC2C(=O)O)c1 (stereo not drawn) [Example 27, 2SR- and 2RS-2-amino-2-(1SR,2SR-2-carboxycyclopropan-1-yl) -4-(3-methoxyphenyl)butanoic acid]
Second: Cc1cccc(CCC(N)(C(=O)O)C2CC2C(=O)O)c1 [Example 68, 2S-2-amino-2-(1S,2S-2-carboxycyclopropan-1-yl)-4-(3-methylphenyl)butanoic acid]
The IC50 of the first is 3.5-fold higher: 42 nM for the first, 12 ± 3 nM for the second.

First: COc1ccc(CCC(N)(C(=O)O)C2CC2C(=O)O)cc1 (stereo not drawn) [Example 28, 2SR- and 2RS-2-amino-2-(1SR,2SR-2-carboxycyclopropan-1-yl)-4-(4-methoxyphenyl)butanoic acid]
Second: COc1ccc(CCC(N)(C(=O)O)C2CC2C(=O)O)cc1OC (stereo not drawn) [Example 33, 2SR- and 2RS-2-amino-2-(1SR,2SR-2-carboxycyclopropan-1-yl)-4-(3,4-dimethoxyphenyl)butanoic acid]
The IC50 of the first is 3-fold higher: 1400 nM for the first, 460 nM for the second.

NC(CCc1cccc(O)c1)(C(=O)O)C1CC1C(=O)O (stereo not drawn) [Example 30, 2SR- and 2RS-2-amino-2-(1SR,2SR-2-carboxycyclopropan-1-yl)-4-(3-hydroxyphenyl)butanoic acid] and NC(CCc1cccc(Br)c1)(C(=O)O)C1CC1C(=O)O (stereo not drawn) [Example 38, 2SR- and 2RS-2-amino-2-(1SR,2SR-2-carboxycyclopropan-1-yl)-4-(3-bromophenyl)butanoic acid] are within 1.5-fold of each other in IC50: 80 nM for the first, 55 nM for the second.

Going from CC(CC(N)(C(=O)O)C1CC1C(=O)O)c1ccccc1 (stereo not drawn) [Example 34, 2SR,5SR-, 2SR,5RS-, 2RS,5SR- and 2RS,5RS-2-amino-2-(1SR,2SR-2-carboxycyclopropan-1-yl)-4-methyl-4-phenylbutanoic acid] to N[C@](CC(c1ccccc1)c1ccccc1)(C(=O)O)[C@H]1C[C@@H]1C(=O)O [Example 64, 2S-2-amino-2-(1S,2S-2-carboxycyclopropan-1-yl)-4,4-diphenylbutanoic acid], the IC50 falls from 120 nM to 35 ± 5 nM (3.4-fold).

Going from NC(CCC12CC3CC(CC(C3)C1)C2)(C(=O)O)C1CC1C(=O)O (stereo not drawn) [Example 36] to NC(CCC1CCCCC1)(C(=O)O)C1CC1C(=O)O (stereo not drawn) [Example 44, 2SR- and 2RS-2-amino-2-(1SR,2SR-2-carboxycyclopropan-1-yl)-4-(cyclohexyl)butanoic acid], the IC50 rises from 200 nM to 380 nM (1.9-fold).

Compared with NC(CCc1cccc(C(F)(F)F)c1)(C(=O)O)C1CC1C(=O)O (stereo not drawn) [Example 37, 2SR- and 2RS-2-amino-2-(1SR,2SR-2-carboxycyclopropan-1-yl)-4-(3-(trifluoromethyl)phenyl)butanoic acid], NC(CCc1ccc(Cl)c(Cl)c1)(C(=O)O)C1CC1C(=O)O (stereo not drawn) [Example 48, 2SR- and 2RS-2-amino-2-(1SR,2SR-2-carboxycyclopropan-1-yl)-4-(3,4-dichlorophenyl)butanoic acid] is 1.7-fold lower in IC50: 64 nM for the first, 38 nM for the second. The second is the more potent here.

First: NC(CC1CCCC1)(C(=O)O)C1CC1C(=O)O (stereo not drawn) [Example 41, 2SR- and 2RS-2-amino-2-(1SR,2SR-2-carboxycyclopropan-1-yl)-3-cyclopentylpropanoic acid]
Second: NC(CCc1ccc(Cl)cc1Cl)(C(=O)O)C1CC1C(=O)O (stereo not drawn) [Example 47, 2SR- and 2RS-2-amino-2-(1SR,2SR-2-carboxycyclopropan-1-yl)-4-(2,4-dichlorophenyl)butanoic acid]
The IC50 of the first is 6.4-fold higher: 1400 nM for the first, 220 nM for the second. The second is the more potent here.

Molecule NC(CC(c1ccc(Cl)cc1)c1ccc(Cl)cc1)(C(=O)O)C1CC1C(=O)O (stereo not drawn) [Example 46, 2SR- and 2RS-2-amino-2-(1SR,2SR-2-carboxycyclopropan-1-yl)-4,4-di(4,4'-dichloro)phenylbutanoic acid] has an IC50 of 77 nM.
